Measurements published in patent US20260200921A1, “SUBSTITUTED AMINOPYRIDINE COMPOUNDS AS AKT INHIBITORS” (Atavistik Bio, Inc., priority 2023, published 2026).

Columns and labels:
[1] = molecular target: T1, AKT1 E17K (Homo sapiens, UniProt P31749, E17K); experiment: AKT1 E17K kinase assay (TR-FRET, Lance); type: biochemical; conditions: full-length human recombinant AKT1 E17K activated by PDPK1; Ulight-CREBtide substrate; either 50 μM ATP or 2 mM ATP
T1 construct: Purified human recombinant kinase full-length AKT1 E17K was expressed in insect cells; made in house; host or cells: insect cells
Procedure: AKT1 E17K kinase assay: Inhibitory effects of compounds on AKT1 E17K were undertaken in a 10-pt dose response kinase activity assay measuring phospho-peptide product formation based on TR-FRET signal as described in the following paragraph.
(§1) Purified human recombinant kinase full-length AKT1 E17K was expressed in insect cells and activated in vitro by PDPK1. Ulight™-CREBtide (PerkinElmer, catalog number TRF0107) was used as the peptide substrate. The reaction buffer consisted of 50 mM HEPES pH 7.5, 10 mM MgCl2, 0.01% Triton X-100, 0.01% BSA, 2 mM DTT, 0.6 nM AKT1 E17K, 50 nM Ulight™-CREBtide and either 50 μM ATP or 2 mM ATP. The compound solution was prepared as 10 mM DMSO stock. For the assay, a 1:3 serial dilution 10-pt dose response of test compounds, in duplicate, for each concentration were dispensed into a 384-well plate (Corning, catalog number 4513). Final DMSO concentration in the assay was 1%. The enzyme mixture (5 μL, 1.2 nM) were added and the mixture was incubated for 15 min at RT prior to the start of the kinase reaction by the addition of 5 μL substrate mixture (100 nM Ulight™-CREBtide). The reaction was stopped after 60 min of incubation at RT by the addition of 10 μL of Detection Mix (PerkinElmer, #CR97-100) consisting of Europium-anti-phospho-CREB (Ser133) (Perkin Elmer, catalog numberTRF0200). Incubation with the detection mix for a further 60 min allowed binding of antibody to the phospho-Ulight™ CREBtide. The fluorescence emissions at 620 nm and 665 nm after excitation at 350 nm was measured using Envision reader. The ratio of the emissions at 665 nm and at 620 nm provided the measure for the amount of phosphorylated CREBtide product of AKT1 E17K kinase activity. To determine the IC50 values, the data was normalized (enzyme reaction without inhibitor=0% inhibition, all other assay components but no enzyme=100% inhibition) and IC50 values were calculated by a 4-parameter fit using an in-house developed protocol.

[2] = molecular target: T2, wildtype AKT1 (Homo sapiens, UniProt P31749); experiment: AKT1 kinase assay, wildtype (TR-FRET, Lance); type: biochemical; conditions: full-length human recombinant wildtype AKT1 activated by PDPK1; Ulight-CREBtide substrate; either 50 μM ATP or 2 mM ATP
T2 construct: Purified human recombinant kinase full-length wildtype AKT1 was expressed in insect cells; made in house; host or cells: insect cells
Procedure: AKT1 kinase assay: Inhibitory effects of compounds on wildtype AKT1 were undertaken in a 10-pt dose response kinase activity assay measuring phospho-peptide product formation based on TR-FRET signal as described in the following paragraph.
as §1, with “full-length wildtype” for “full-length”, “AKT1” for “AKT1 E17K”, “nM AKT1,” for “nM AKT1 E17K,”, “Mix (PerkinElmer.” for “Mix (PerkinElmer,”

T2 sequence (P31749 whole entry): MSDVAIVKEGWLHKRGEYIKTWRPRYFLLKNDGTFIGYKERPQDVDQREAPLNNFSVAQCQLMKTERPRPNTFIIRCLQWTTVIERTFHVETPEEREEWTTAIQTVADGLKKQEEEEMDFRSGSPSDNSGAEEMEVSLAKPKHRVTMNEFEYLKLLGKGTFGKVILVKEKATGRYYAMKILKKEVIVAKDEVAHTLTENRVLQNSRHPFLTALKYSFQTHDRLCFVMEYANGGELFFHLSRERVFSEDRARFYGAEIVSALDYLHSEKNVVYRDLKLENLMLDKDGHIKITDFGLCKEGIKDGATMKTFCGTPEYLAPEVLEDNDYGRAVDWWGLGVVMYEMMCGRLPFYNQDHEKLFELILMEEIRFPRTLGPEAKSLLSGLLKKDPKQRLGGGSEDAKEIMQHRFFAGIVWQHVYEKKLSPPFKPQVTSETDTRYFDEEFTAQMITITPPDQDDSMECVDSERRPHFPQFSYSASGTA
T1 sequence (P31749 whole entry E17K): as the sequence (P31749 whole entry) above, with E17K counted along it

IC50 [1] | IC50 [2] | SMILES
< 50 nM | < 500 nM | Cc1cc(O)n(-c2ccc(C(=O)N3CC(c4ccc(-n5c(-c6cccnc6N)nc6ccc(-c7ccccc7)nc65)cc4)C3)cc2)n1 [Compound I-25, (3-(4-(2-(2-aminopyridin-3-yl)-5-phenyl-3H-imidazo[4,5-b]pyridin-3-yl)phenyl)azetidin-1-yl)(4-(5-hydroxy-3-methyl-1H-pyrazol-1-yl)phenyl) methanone]
200 to 500 nM | < 500 nM | N#Cc1cnn(-c2ccc(C(=O)NCc3ccc(-n4c(-c5cccnc5N)nc5ccc(-c6ccccc6)nc54)cc3)cc2)c1 [Compound I-12, N-(4-(2-(2-aminopyridin-3-yl)-5-phenyl-3H-imidazo[4,5-b]pyridin-3-yl)benzyl)-4-(4-cyano-1H-pyrazol-1-yl)benzamide]
50 to 200 nM | < 500 nM | N#Cc1cc(O)n(-c2ccc(C(=O)NCc3ccc(-n4c(-c5cccnc5N)nc5ccc(-c6ccccc6)nc54)cc3)cc2)n1 [Compound I-15, N-(4-(2-(2-aminopyridin-3-yl)-5-phenyl-3H-imidazo[4,5-b]pyridin-3-yl)benzyl)-4-(3-cyano-5-hydroxy-1H-pyrazol-1-yl)benzamide]
≥ 500 nM | < 500 nM | Nc1ncccc1-c1nc2ccc(-c3ccccc3)nc2n1-c1ccc(CNC(=O)c2ccc(-n3nc(-c4ccccc4)cc3O)cc2)cc1 [Compound I-8, N-(4-(2-(2-aminopyridin-3-yl)-5-phenyl-3H-imidazo[4,5-b]pyridin-3-yl)benzyl)-4-(5-hydroxy-3-phenyl-1H-pyrazol-1-yl)benzamide]
≥ 500 nM | > 500 nM | Cc1cc(O)n(-c2ccc(C(=O)NCc3ccc(-n4c(-c5cccnc5N)nc5ccc(-c6ccccc6)cc54)cc3)cc2)n1 [Compound I-28, N-[[4-[2-(2-amino-3-pyridyl)-6-phenyl-benzimidazol-1-yl]phenyl]methyl]-4-(5-hydroxy-3-methyl-pyrazol-1-yl)benzamide]
≥ 500 nM | < 500 nM | Cc1cc(O)n(-c2ccc(C(=O)NCc3ccc(-n4c(-c5cccnc5N)nc5cc(-c6cccnc6)cnc54)cc3)cc2)n1 [Compound I-24, N-[[4-[2-(2-amino-3-pyridyl)-6-(3-pyridyl)imidazo[4,5-b]pyridin-3-yl]phenyl]methyl]-4-(5-hydroxy-3-methyl-pyrazol-1-yl)benzamide]
< 50 nM | < 500 nM | Cc1cc(O)n(-c2ccc(C(=O)NCc3ccc(-n4c(-c5cccnc5N)nc5ccc(-c6ccccc6)nc54)cc3)cn2)n1 [Compound I-18, N-(4-(2-(2-aminopyridin-3-yl)-5-phenyl-3H-imidazo[4,5-b]pyridin-3-yl)benzyl)-6-(5-hydroxy-3-methyl-1H-pyrazol-1-yl)nicotinamide]
50 to 200 nM | < 500 nM | Cc1cc(O)n(-c2ccc(C(=O)NCc3ccc(-n4c(-c5cccnc5N)nc5ccc(-c6ccccc6)nc54)cc3)c(F)c2)n1 [Compound I-4, N-[[4-[2-(2-amino-3-pyridyl)-5-phenyl-imidazo[4,5-b]pyridin-3-yl]phenyl]methyl]-2-fluoro-4-(5-hydroxy-3-methyl-pyrazol-1-yl)benzamide]
50 to 200 nM | < 500 nM | Cc1nc(NC(=O)c2ccc(-c3nsc(=O)[nH]3)cc2)ccc1-n1c(-c2cccnc2N)nc2ccc(-c3ccccc3)nc21 [Compound I-42, N-(5-(2-(2-aminopyridin-3-yl)-5-phenyl-3H-imidazo[4,5-b]pyridin-3-yl)-6-methylpyridin-2-yl)-4-(5-oxo-4,5-dihydro-1,2,4-thiadiazol-3-yl)benzamide]
≥ 500 nM | < 500 nM | Nc1ncccc1-c1nc2ccc(-c3ccccc3)nc2n1-c1ccc(C2CCN(C[C@H]3CC[C@H](c4nsc(=O)[nH]4)CC3)CC2)cc1 [Compound I-45, 3-((1r,4r)-4-((4-(4-(2-(2-aminopyridin-3-yl)-5-phenyl-3H-imidazo[4,5-b]pyridin-3-yl)phenyl)piperidin-1-yl)methyl)cyclohexyl)-1,2,4-thiadiazol-5(4H)-one]
